Data published in ChEMBL document CHEMBL1150095, “Antitumor activity and stereochemistry of acetylenic alcohols from the sponge Cribrochalina vasculum” (1995).

Assays:
Type in all cases: functional
ACHN = experiment: Antitumor activity against human ACHN cells
CAKI-1 = experiment: Antitumor activity against human Caki1 cells
RXF 393 = experiment: Antitumor activity against human RXF393 cells
SN12C = experiment: Antitumor activity against human SN12C cells
TK-10 = experiment: Antitumor activity against human TK10 cells
UO-31 = experiment: Antitumor activity against human UO31 cells
PC-3 = experiment: Antitumor activity against human PC3 cells
DU-145 = experiment: Antitumor activity against human DU145 cells
MCF7 = experiment: Antitumor activity against human MCF7 cells
[1] = Antitumor activity against human MCF7/ADR cells; settings: NCI/ADR-RES
MDA-MB-231 = experiment: Antitumor activity against human MDA-MB-231 cells
[2] = Antitumor activity against human Hs 578T cells
MDA-MB-435 = experiment: Antitumor activity against human MDA-MB-435 cells
MDA-N = experiment: Antitumor activity against human MDA-N cells
BT-549 = experiment: Antitumor activity against human BT549 cells
T47D = experiment: Antitumor activity against human T47D cells
MOLT-4 = experiment: Antitumor activity against human MOLT4 cells
[3] = Antitumor activity against human […] cells
K562 = experiment: Antitumor activity against human K562 cells
HL-60(TB) = experiment: Antitumor activity against human HL-60(TB) cells
CCRF-CEM = experiment: Antitumor activity against human CCRF-CEM cells
SR = experiment: Antitumor activity against human SR cells
A549 = experiment: Antitumor activity against human A549 cells
EKVX = experiment: Antitumor activity against human EKVX cells
HOP-62 = experiment: Antitumor activity against human HOP62 cells
HOP-92 = experiment: Antitumor activity against human HOP92 cells
NCI-H226 = experiment: Antitumor activity against human NCI-H226 cells
NCI-H23 = experiment: Antitumor activity against human NCI-H23 cells
NCI-H322M = experiment: Antitumor activity against human NCI-H322M cells
NCI-H460 = experiment: Antitumor activity against human NCI-H460 cells
[4] = read-out: pLC50 (the source's name) (converted)

In the case of `C#C[C@@H](O)/C=C/CCCCCCCCC/C=C\CCCCCC`, the GI50 (ACHN) is reported as 45.7 nM, the CC50 (ACHN; [4]) is reported as 141 nM and the TGI (ACHN; read-out: pTGI (converted)) is reported as 79.4 nM. It also gave a GI50 (CAKI-1) of 52.5 nM, a CC50 (CAKI-1; [4]) of 162 nM and a TGI (CAKI-1; read-out: pTGI (converted)) of 91.2 nM. The GI50 (RXF 393) was 33.1 nM, the CC50 (RXF 393; [4]) was 132 nM and the TGI (RXF 393; read-out: pTGI (converted)) was 66.1 nM. It also gave a GI50 (SN12C) of 28.8 nM, a CC50 (SN12C; [4]) of 123 nM and a TGI (SN12C; read-out: pTGI (converted)) of 58.9 nM. It also gave a GI50 (TK-10) of 60.3 nM, a CC50 (TK-10; [4]) of 155 nM and a TGI (TK-10; read-out: pTGI (converted)) of 97.7 nM. The GI50 (UO-31) was 52.5 nM, the CC50 (UO-31; [4]) was 151 nM and the TGI (UO-31; read-out: pTGI (converted)) was 89.1 nM. The GI50 (PC-3) was 39.8 nM, the CC50 (PC-3; [4]) was 138 nM and the TGI (PC-3; read-out: pTGI (converted)) was 74.1 nM. The GI50 (DU-145) was 47.9 nM, the CC50 (DU-145; [4]) was 145 nM and the TGI (DU-145; read-out: pTGI (converted)) was 83.2 nM. The GI50 (MCF7) was 13.8 nM, the CC50 (MCF7; [4]) was 123 nM and the TGI (MCF7; read-out: pTGI (converted)) was 47.9 nM. For the same compound, the GI50 [1] was 38 nM, the CC50 [1, 4] was 138 nM and the TGI ([1]; read-out: pTGI (converted)) was 72.4 nM. The GI50 (MDA-MB-231) was 47.9 nM, the CC50 (MDA-MB-231; [4]) was 145 nM and the TGI (MDA-MB-231; read-out: pTGI (converted)) was 83.2 nM. The GI50 [2] was 44.7 nM, the CC50 [2, 4] was 170 nM and the TGI ([2]; read-out: pTGI (converted)) was 87.1 nM. For the same compound, the GI50 (MDA-MB-435) was 26.9 nM, the CC50 (MDA-MB-435; [4]) was 126 nM and the TGI (MDA-MB-435; read-out: pTGI (converted)) was 57.5 nM. It also gave a GI50 (MDA-N) of 25.1 nM, a CC50 (MDA-N; [4]) of 115 nM and a TGI (MDA-N; read-out: pTGI (converted)) of 53.7 nM. For the same compound, the GI50 (BT-549) was 38.9 nM, the CC50 (BT-549; [4]) was 135 nM and the TGI (BT-549; read-out: pTGI (converted)) was 72.4 nM. For the same compound, the GI50 (T47D) was 6.31 nM, the CC50 (T47D; [4]) was 115 nM and the TGI (T47D; read-out: pTGI (converted)) was 42.7 nM. It also gave a GI50 (MOLT-4) of 6.46 nM, a CC50 (MOLT-4; [4]) of 126 nM and a TGI (MOLT-4; read-out: pTGI (converted)) of 26.9 nM. It also gave a GI50 [3] of 6.76 nM, a CC50 [3, 4] of 129 nM and a TGI ([3]; read-out: pTGI (converted)) of 18.6 nM. The GI50 (K562) was 30.9 nM, the CC50 (K562; [4]) was 155 nM and the TGI (K562; read-out: pTGI (converted)) was 69.2 nM. For the same compound, the GI50 (HL-60(TB)) was 10.2 nM, the CC50 (HL-60(TB); [4]) was 129 nM and the TGI (HL-60(TB); read-out: pTGI (converted)) was 36.3 nM. The GI50 (CCRF-CEM) was 0.631 nM, the CC50 (CCRF-CEM; [4]) was 61.7 nM and the TGI (CCRF-CEM; read-out: pTGI (converted)) was 1.55 nM. The GI50 (SR) was 15.5 nM, the CC50 (SR; [4]) was 174 nM and the TGI (SR; read-out: pTGI (converted)) was 55 nM. For the same compound, the GI50 (A549) was 45.7 nM, the CC50 (A549; [4]) was 148 nM and the TGI (A549; read-out: pTGI (converted)) was 83.2 nM. The GI50 (EKVX) was 46.8 nM, the CC50 (EKVX; [4]) was 145 nM and the TGI (EKVX; read-out: pTGI (converted)) was 81.3 nM. For the same compound, the GI50 (HOP-62) was 52.5 nM, the CC50 (HOP-62; [4]) was 151 nM and the TGI (HOP-62; read-out: pTGI (converted)) was 89.1 nM. It also gave a GI50 (HOP-92) of 46.8 nM, a CC50 (HOP-92; [4]) of 145 nM and a TGI (HOP-92; read-out: pTGI (converted)) of 83.2 nM. It also gave a GI50 (NCI-H226) of 30.2 nM, a CC50 (NCI-H226; [4]) of 129 nM and a TGI (NCI-H226; read-out: pTGI (converted)) of 61.7 nM. It also gave a GI50 (NCI-H23) of 13.5 nM, a CC50 (NCI-H23; [4]) of 110 nM and a TGI (NCI-H23; read-out: pTGI (converted)) of 45.7 nM. The GI50 (NCI-H322M) was 53.7 nM, the CC50 (NCI-H322M; [4]) was 151 nM and the TGI (NCI-H322M; read-out: pTGI (converted)) was 91.2 nM. For the same compound, the GI50 (NCI-H460) was 42.7 nM.
